Tested on: LRP-1
Assay: Single binding energy of a ligand/LRP-1 receptor pair
Excerpt: wherein: • λ is the density of the ligand type on the external surface of the microparticle or nanoparticle (number per nm^2 • A is the microparticle or nanoparticle surface area (in nm^2); • ξ is the number of the LRP-1 receptors accessible to the nanoparticles, and thus ξ=ΓA where, Γ is the LRP-1 surface density (number per nm^2) and A is as defined above; • β=(kBT)^−1 wherein kB is the Boltzmann constant (in JK^−1) and T is the absolute temperature in Kelvin; • εB is the single energy of binding of a ligand type/LRP-1 receptor pair (in J); and • uS is the steric potential between the nanoparticle or microparticle and the cell surface (in J).
The single ligand binding potential εB between a given ligand and the LRP-1 receptor can be measured experimentally by binding assays including Surface plasmon resonance spectroscopy, Isothermal titration calorimetry, radiolabeling or fluorescent labelling. It can also be estimated computationally using molecular docking and or molecular dynamics methods.

LRP-1, sequence (Q07954 20-4544, species assumed): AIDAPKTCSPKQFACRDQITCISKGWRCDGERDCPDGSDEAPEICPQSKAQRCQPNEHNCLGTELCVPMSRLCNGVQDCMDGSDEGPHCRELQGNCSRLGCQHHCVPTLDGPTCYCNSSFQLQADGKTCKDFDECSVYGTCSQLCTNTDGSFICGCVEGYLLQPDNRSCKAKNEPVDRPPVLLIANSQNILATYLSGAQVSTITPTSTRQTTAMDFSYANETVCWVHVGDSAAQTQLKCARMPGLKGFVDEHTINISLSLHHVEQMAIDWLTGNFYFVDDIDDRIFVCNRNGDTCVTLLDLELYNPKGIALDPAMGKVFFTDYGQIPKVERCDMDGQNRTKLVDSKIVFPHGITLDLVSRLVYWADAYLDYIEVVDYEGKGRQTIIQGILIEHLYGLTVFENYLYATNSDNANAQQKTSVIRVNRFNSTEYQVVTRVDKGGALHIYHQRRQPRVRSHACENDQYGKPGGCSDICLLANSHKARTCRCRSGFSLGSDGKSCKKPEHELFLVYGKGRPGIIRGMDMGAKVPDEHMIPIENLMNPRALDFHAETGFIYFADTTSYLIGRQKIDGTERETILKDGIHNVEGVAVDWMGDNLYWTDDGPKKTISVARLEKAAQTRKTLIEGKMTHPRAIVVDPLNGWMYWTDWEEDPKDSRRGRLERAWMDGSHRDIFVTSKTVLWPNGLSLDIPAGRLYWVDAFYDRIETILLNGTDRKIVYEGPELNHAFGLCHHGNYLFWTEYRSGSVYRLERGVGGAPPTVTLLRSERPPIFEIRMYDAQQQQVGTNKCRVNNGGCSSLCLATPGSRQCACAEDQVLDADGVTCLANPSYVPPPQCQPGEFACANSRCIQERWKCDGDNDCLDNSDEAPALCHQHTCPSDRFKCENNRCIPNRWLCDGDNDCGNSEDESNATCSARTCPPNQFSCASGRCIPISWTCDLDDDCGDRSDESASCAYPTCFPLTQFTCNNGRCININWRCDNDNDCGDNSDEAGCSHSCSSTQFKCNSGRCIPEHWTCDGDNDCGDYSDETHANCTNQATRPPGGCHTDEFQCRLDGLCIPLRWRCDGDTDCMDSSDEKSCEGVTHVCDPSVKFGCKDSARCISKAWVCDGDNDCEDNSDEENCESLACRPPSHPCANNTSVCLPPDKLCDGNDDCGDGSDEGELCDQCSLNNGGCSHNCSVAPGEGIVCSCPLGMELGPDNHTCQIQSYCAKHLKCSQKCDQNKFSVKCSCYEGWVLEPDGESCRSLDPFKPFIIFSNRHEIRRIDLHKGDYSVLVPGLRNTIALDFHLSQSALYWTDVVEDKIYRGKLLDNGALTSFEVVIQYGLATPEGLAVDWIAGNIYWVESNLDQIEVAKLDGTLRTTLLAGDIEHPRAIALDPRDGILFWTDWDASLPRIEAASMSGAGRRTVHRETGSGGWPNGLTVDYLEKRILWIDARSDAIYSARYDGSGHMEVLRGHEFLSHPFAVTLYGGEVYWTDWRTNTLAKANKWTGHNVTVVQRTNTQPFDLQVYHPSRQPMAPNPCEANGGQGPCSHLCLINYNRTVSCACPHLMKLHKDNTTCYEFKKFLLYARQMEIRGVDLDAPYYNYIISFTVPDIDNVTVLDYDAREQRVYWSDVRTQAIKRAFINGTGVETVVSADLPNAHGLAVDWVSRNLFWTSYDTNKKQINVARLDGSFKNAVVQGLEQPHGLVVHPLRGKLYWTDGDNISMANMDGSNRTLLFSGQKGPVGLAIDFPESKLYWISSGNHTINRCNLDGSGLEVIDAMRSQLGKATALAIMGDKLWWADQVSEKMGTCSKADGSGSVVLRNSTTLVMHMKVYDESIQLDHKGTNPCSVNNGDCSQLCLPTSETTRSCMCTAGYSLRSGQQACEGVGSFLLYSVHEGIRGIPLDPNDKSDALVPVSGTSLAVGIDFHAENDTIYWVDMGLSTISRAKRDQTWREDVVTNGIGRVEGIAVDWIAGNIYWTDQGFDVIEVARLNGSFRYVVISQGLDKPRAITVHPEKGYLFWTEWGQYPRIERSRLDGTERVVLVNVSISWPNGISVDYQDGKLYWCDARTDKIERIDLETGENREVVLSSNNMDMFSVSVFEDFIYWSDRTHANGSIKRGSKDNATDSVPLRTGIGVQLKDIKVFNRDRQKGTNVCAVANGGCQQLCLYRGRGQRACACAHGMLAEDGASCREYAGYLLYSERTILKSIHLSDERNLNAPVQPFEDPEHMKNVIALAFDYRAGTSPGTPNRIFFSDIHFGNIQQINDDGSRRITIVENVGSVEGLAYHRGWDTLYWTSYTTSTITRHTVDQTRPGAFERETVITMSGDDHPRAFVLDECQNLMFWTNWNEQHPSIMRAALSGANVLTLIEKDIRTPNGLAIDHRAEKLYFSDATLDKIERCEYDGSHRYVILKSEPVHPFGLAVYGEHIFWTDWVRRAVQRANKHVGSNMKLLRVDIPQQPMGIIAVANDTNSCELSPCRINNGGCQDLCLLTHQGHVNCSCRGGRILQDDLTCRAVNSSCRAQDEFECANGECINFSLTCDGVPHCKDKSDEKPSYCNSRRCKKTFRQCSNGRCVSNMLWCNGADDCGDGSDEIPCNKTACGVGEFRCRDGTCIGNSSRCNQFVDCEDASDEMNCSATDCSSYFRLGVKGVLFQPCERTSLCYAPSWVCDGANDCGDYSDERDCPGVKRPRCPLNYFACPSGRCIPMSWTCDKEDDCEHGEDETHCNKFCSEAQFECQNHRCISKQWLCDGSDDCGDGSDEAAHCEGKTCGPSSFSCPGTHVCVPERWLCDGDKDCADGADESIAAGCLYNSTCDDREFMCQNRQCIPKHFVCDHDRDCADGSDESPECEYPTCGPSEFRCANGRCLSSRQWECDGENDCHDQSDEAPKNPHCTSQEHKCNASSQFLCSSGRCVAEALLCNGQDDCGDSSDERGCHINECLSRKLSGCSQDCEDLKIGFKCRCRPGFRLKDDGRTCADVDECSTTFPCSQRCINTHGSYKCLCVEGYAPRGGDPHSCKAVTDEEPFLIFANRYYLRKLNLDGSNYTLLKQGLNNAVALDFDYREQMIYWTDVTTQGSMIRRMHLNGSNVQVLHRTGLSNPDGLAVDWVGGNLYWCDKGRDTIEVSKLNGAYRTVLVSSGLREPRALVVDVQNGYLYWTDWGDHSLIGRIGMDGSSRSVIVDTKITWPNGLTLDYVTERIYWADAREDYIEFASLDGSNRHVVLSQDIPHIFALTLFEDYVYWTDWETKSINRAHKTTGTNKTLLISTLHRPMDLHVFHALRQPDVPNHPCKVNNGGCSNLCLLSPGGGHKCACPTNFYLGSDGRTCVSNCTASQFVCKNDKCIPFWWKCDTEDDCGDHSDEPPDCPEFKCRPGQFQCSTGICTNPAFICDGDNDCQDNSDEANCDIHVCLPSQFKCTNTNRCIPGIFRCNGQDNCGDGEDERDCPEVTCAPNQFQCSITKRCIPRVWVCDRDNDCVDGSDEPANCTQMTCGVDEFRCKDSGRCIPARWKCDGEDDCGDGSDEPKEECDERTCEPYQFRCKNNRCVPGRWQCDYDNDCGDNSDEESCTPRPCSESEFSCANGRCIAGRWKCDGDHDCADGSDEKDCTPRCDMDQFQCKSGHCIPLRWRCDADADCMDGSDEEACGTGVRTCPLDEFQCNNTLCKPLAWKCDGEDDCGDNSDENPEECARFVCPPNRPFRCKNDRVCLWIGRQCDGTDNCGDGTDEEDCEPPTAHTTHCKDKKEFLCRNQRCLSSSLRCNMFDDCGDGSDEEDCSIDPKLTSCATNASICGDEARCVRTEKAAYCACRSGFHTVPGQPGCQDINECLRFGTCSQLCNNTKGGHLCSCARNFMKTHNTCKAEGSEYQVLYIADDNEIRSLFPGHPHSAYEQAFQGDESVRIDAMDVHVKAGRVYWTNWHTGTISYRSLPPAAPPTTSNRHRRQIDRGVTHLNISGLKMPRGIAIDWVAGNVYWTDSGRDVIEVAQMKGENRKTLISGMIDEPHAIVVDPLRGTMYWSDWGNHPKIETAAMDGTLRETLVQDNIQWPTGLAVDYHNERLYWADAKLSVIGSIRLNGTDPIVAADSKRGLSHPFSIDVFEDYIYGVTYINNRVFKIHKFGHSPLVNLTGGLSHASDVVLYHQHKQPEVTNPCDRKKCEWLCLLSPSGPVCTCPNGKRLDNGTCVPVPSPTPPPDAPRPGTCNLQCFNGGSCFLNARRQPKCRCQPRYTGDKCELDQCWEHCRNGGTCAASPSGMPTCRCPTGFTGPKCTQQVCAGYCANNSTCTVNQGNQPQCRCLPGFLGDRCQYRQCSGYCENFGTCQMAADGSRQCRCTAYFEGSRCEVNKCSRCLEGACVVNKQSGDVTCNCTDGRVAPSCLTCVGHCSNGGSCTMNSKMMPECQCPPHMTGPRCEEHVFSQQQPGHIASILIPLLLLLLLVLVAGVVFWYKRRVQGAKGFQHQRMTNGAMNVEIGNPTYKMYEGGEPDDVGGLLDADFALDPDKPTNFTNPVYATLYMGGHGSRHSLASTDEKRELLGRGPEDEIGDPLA

TFFYGGSRGKRNNFKTEEY [Angiopep-2]
εB, single energy of binding of ligand/LRP-1 receptor pair: −15 kBT

Source: US20250000999A1, “POLYMERSOMES FOR CLEARANCE OF AMYLOID BETA AND/OR TAU PROTEINS” (UCL Business Ltd, priority 2021, published 2025)
